Holding throughout (assay type): cell-based, human
For assay [1], the system named is NFκB targets. Put plainly: TNFα induced expression of NFκB targets (quantitative PCR). As to conditions: 10 ng/ml TNFα 1 hr; MST-312 2 μM 48 hrs (FIG. 2F); siRNA 65 hrs (FIG. 2E). Here is the method: E. Cells were transfected with siRNA for hTERT (si-hTERT) or scrambled controls (si-Cntrl) as indicated. 65 hrs later cells were treated with 10 ng/ml TNFα for 1 hr followed by mRNA extraction and quantitative PCR. Levels of relative mRNA expression for the indicated genes are shown.
F. Cells were treated with 2 μM MST-312 or DMSO as indicated for 48 hrs. Cells were treated with 10 ng/ml TNF for 1 hr followed by mRNA extraction and quantitative PCR. Levels of relative mRNA expression for the indicated genes are shown.
(§1) Total RNA was isolated using RNeasy Kit (Qiagen) according to the manufacturer's instructions. cDNA was prepared from 1-2 μg of RNA Superscript Vilo reverse transcriptase (Invitrogen). Real-time PCR reactions were performed in duplicates using SYBR GreenER (Invitrogen) according to the manufacturer's instructions. Cycles for SYBR GreenER PCRs: 7.5 min at 95° C. for the initial denaturation, followed by 40 cycles of 95° C. for 15 s and 60° C. for 30 s. Primer sequences are set out in the following Table: […]

Assay [2] has as its system NFκB signalling. Put plainly: NFκB signalling immunoblot in telomerase null VA13 cells. The note with it: 2 μM MST-312 24 hrs, then 10 ng/ml TNFα time course (FIG. 12A). On the procedure:
(§2) VA13 cells were treated with 2 μM MST-312 or DMSO for 24 hrs followed by stimulation with 10 ng/ml TNFα for the indicated durations.
A. Phosphorylated and total amounts of proteins were analysed by immunoblotting for the indicated proteins over the time course.
Total protein was extracted with Totex buffer (20 mM Hepes at pH 7.9, 0.35 M NaCl, 20% glycerol, 1% NP-40, 1 mM MgCl2, 0.5 mM EDTA, 0.1 mM EGTA, 50 mM NaF and 0.3 mM NaVO3) containing a mixture of protease inhibitors (Roche). Immunoblotting was performed with specific antibodies and visualized using ECL western blotting detection kit (Amersham Bioscience).
In general terms: A western blot detects proteins with antibodies after separation by electrophoresis.

For assay [3], the system named is NFκB gene expression. Put plainly: Relative mRNA expression in VA13 cells after TNFα (qPCR). On the procedure: as §2
B. Relative mRNA expression levels of indicated genes after stimulation with TNFα for 1 hr.
as §1
Background: In qPCR the cycle at which signal appears reflects the starting amount.

For assay [4], the system named is p65. Put plainly: TNFα stimulated nuclear translocation of p65 (nuclear fractions, immunoblot). As to conditions: HeLa cells, 2 μM MST-312 or si-hTERT, 48 hrs, 10 ng/ml TNFα 30 min (FIG. 17A). Here is the method: A. HeLa cells were treated with 2 μM MST-312 (lanes 3-4), DMSO (lanes 1-2) or transfected with si-hTERT, si-Cntrl (Lanes 5-8) or infected with TT, Cntrl virus (Lanes 9-12) as indicated. 48 hrs later, cells were stimulated with 10 ng/ml TNFα for 30 min followed by fractionation of nuclear and cytosolic fractions.
The cells were harvested in ice-cold PBS and resuspended in hypotonic lysis buffer (10 mM HEPES pH7.9, 1.5 mM MgCl2, 10 mM KCl, protease and phosphatse inhibitors) and incubated on ice for 4 min. They were, then spun down for 3 min at 4500 rpm and the cytoplasmic fraction aspirated to separate tubes. The pellet was washed with hypotonic buffer once. The nuclear fraction was then lysed in IP lysis (10 mM Tris at pH 8, 170 mM NaCl, 0.5% NP40 and protease inhibitors) buffer on ice for 30 min. The lysate was clarified by centrifugation and 1 mg of each fraction was used for corresponding IP reactions.

For assay [5], the system named is IL6. Put plainly: IL6 expression in primary leukemia cells from patients. As to conditions: primary leukemic cells from AML, ALL or CML patients; MST-312 0.5 μM 48 hours vs DMSO (FIG. 6G). On the procedure:
G. IL6 expression in primary patient samples after treatment with 0.5μ MST-312 for 48 hrs. Expression levels are shown as percentage expression of IL6 in MST-312 treated samples compared to the matched DMSO treatment for each individual patient line (X-axis). ND—not detectable.
Total RNA was isolated using RNeasy Kit (Qiagen) according to the manufacturer's instructions. cDNA was prepared from 1-2 μg of RNA Superscript Vilo reverse transcriptase (Invitrogen). Real-time PCR reactions were performed in duplicates using SYBR GreenER (Invitrogen) according to the manufacturer's instructions. Cycles for SYBR GreenER PCRs: 7.5 min at 95° C. for the initial denaturation, followed by 40 cycles of 95° C. for 15 s and 60° C. for 30 s. Primer sequences are set out in the following Table:
Bone marrow blast cells (>90%) from newly diagnosed leukemia patients were obtained at National University Hospital in Singapore. Primary leukemia cells were cultured in IMDM with 10% of fetal bovine serum (FBS), FLT3 ligand (20 ng/ml), SCF (20 ng/ml), IL-3 (20 ng/ml), G-CSF (50 ng/ml), TPO (50 ng/ml) and 1% Penicillin/Streptomycin in a humid incubator with 5% CO2 at 37° C. All the human cytokines were purchased from Peprotech (Rocky Hill, N.J.). […]

Each structure is given as a SMILES string.

With `O=C(Nc1cccc(NC(=O)c2cccc(O)c2O)c1)c1cccc(O)c1O` [MST-312, N,N′-1,3-Phenylenebis-[2,3-dihydroxy-benzamide]], the “TNFα induced expression of NFκB targets” value in assay [1] is listed as “reduced”. Also, in assay [2], the “p65 phosphorylation or IκBα degradation” value is recorded as “No changes”. Also, the “stimulus dependent NFκB gene expression” value in assay [3] (VA13 cells, 2 μM MST-312 24 hrs, TNFα 1 hr (FIG. 12B)) was “did not affect”. In addition, the “levels of hTERT” value in assay [3] (short term MST-312 treatment (FIG. 12B)) is recorded as “did not cause changes”. Further, the “TNFα stimulated nuclear translocation of p65” value in assay [4] is “did not affect”. The “samples in which the levels of IL6 were significantly reduced” value in assay [5] is “more than 80%”.

Source of the values: patent publication US20150232856A1, “TELOMERASE INHIBITORS FOR USE IN THERAPY” (AGENCY FOR SCIENCE, TECHNOLOGY AND RESEARCH, priority 2012, published 2015).
